# Measurements taken from patent US20120064008A1, “COMPOSITIONS FOR THE TREATMENT OF METASTATIC CANCER AND METHODS OF USE THEREOF” (priority 2009, published 2012).
# pEC50: −log10 of the molar value. Where two headings read alike, the source gives them in different places.
# Tests used:
# PC-3MLN4 cells = assay: Normalized mitotic index (histone H3 phospho-Serine-28), PC-3MLN4; format: cell-based; conditions: Homo sapiens, at 1 μM; normalized against vehicle-treated cells; read-out: Normalized mitotic index PC-3MLN4
# From the text: (§1) The mitotic index for each agent was normalized against those obtained from vehicle-treated cells, and compared with the activity of paclitaxel, a known inducer of mitotic arrest.
# PC-3M cells = assay: Normalized mitotic index (histone H3 phospho-Serine-28), PC-3M; format: cell-based; conditions: Homo sapiens, at 1 μM, normalized against vehicle-treated cells, read-out: Normalized mitotic index PC-3M
# From the text: as §1
# AT6.1 cells = assay: Normalized mitotic index (histone H3 phospho-Serine-28), AT6.1; format: cell-based; conditions: Rattus norvegicus, at 1 μM; normalized against vehicle-treated cells; read-out: Normalized mitotic index AT6.1
# From the text: as §1
# [1] = system: AT6.1 Dunning rat prostate carcinoma; assay: Survival in intravenous AT6.1 Dunning rat prostate carcinoma lung metastasis model; format: in vivo, nu/nu mice; conditions: for percent increase in life span (ILS %): 100 mg/kg i.p. three times a week, over vehicle-treated mice; for average survival time: FIG. 5 (carrier only 20.4 days)
# Procedure: Many anti-tumor drugs are tested only for their ability to prevent primary tumor growth or to prevent the dissemination of metastatic cells. To accomplish this, the drug is usually administered shortly after the primary tumor is established. […] The benzimidazoles described herein were evaluated in an experimental metastases model in the lungs of nude mice following tail-vein injection of Dunning rat AT6.1 prostate carcinoma. […] In order to achieve greater bioavailability, we first solubilized benzimidazoles in DNTC formulation and then diluted with saline prior to injection.
# Inbred male nu/nu mice age 6-8 weeks were obtained from Massachusetts General Hospital (Boston, Mass.). The mice were virus antibody free, age and weight matched for experimental use and fed with a balanced rodent diet ad libitum. AT6.1 Dunning rat prostate cells were maintained as described above. 1×10^4 log-phase cells were injected via tail vein in 0.1 mL Hanks solution. Vehicle or drug treatment was started on day 5 post inoculation and given three times a week (Monday, Wednesday and Friday) via intraperitoneal injection in 0.5 mL volume. Benzimidazole drugs were prepared in the combination carrier [DMSO (12.5%), NMP (37.5%), TWEEN®-80 (25%) and CrEL (25%)] and diluted in saline. Vehicle control was prepared by diluting the combination carrier with saline.
# During the course of treatment, the mice were monitored for toxicity by measuring body weight. […] Animals were euthanized with CO2 and tissues were collected for further analysis. The animals and experiments used in these studies were approved by the institutional animal care committee according to Children's Hospital Boston ARCH guidelines.
# To distinguish differences in survival between these groups, the percent increase in life span (ILS %), defined as the percent increase in the mean time to death of drug-treated animals over the corresponding time to death for vehicle-treated mice, was calculated.
# tubulin = assay: In vitro tubulin polymerization assay; format: biochemical
# From the text: Using an in vitro tubulin polymerization assay, it was confirmed that benzimidazoles disrupt microtubule polymerization.
# [2] = system: PC3M human prostate cancer cells; assay: Cyquant cell viability assay, PC3M; format: cell-based; conditions: Homo sapiens, PC-3M
# Procedure: (§2) PC3M and PC3MLN4 cells were treated with vehicle, fenbendazole in DMSO, and fenbendazole in DMSO/NMP/TWEEN®-80/CrEL in varying doses for 72 hours. Cell viability assays using Cyquant reagent (Invitrogen, C7026) were performed as described in the literature. […] cells were seeded in 96 well plates overnight, before treated with either vehicle or benzimidazole solubilized in DMSO alone or in DMSO (12.5%)/NMP ([…])/TWEEN®-80 (25%)/Cr-EL (25%) for 72 hours. Cells were harvested by removing the media, washing once with phosphate buffered saline (PBS) and freezing at −80° C. for overnight. After thawing to room temperature, Cyquant reagent were prepared and added to the wells and the fluorescence intensity were measured with a spectrometer at 485 nm. Percent control was calculated by dividing the reading from drug-treated cells with the reading from vehicle-treated cells.
# (§3) ED50 values were calculated from dose-effect analysis performed with Compusyn using data from the Cyquant cell viability assays.
# (§4) ED50 values were calculated from dose-effect analysis performed with Compusyn using data from the Cyquant cell viability assays. All benzimidazoles drugs were solubilized in the combination carrier.
# [3] = system: PC3MLN4 human prostate cancer cells; assay: Cyquant cell viability assay, PC3MLN4
# Procedure: as §2, §3, §4
# PC3MLN4 cells = assay: Annexin V/7-AAD apoptosis by flow cytometry, PC3MLN4
# Procedure: (§5) Annexin V/7-amino-actinomycin D labeling was done according to the manufacturer's instructions (BD Pharmingen, 559763) and samples were analyzed by flow cytometry. Briefly, the cells were treated for 72 hours with either vehicle or 1 μM benzimidazole drugs, solubilized in the combination carrier. Cells were trypsinized and washed with PBS before resuspending in assay binding buffer. Annexin V and 7-amino-actinomycin labeling was performed at room temperature for 15 minutes before analysis by flow cytometry (BD FACScan). Cells positively stained for annexin V in the lower right quadrant and upper right quadrant indicate early and late apoptosis, respectively.
# All benzimidazole drugs were solubilized in the combination carrier. After 72 hours, the cells were analyzed by annexin V/7-AAD staining. Cells positively stained for annexin V in the lower right quadrant and upper right quadrant indicate early and late apoptosis, respectively.
# PC3M cells = assay: Annexin V/7-AAD apoptosis by flow cytometry, PC3M; format: cell-based, human; conditions: 1 μM, 72 hours, combination carrier
# Procedure: All benzimidazole drugs were solubilized in the combination carrier. After 72 hours, the cells were analyzed by annexin V/7-AAD staining.
# as §5
# [4] = system: AT6.1 Dunning rat prostate carcinoma; assay: Tumor burden by blood Gaussia luciferase assay in AT6.1 model; format: in vivo, nu/nu mice; conditions: 100 mg/kg
# From the text: Similar to the survival model, treatment was not begun until day 5 when micrometastases were confirmed growing in the lung. For this approach, the AT6.1 cells were engineered to express secreted Gaussia luciferase enzyme. Using measurement of luciferase activity from the peripheral blood as an indicator of overall tumor burden, a significant reduction of tumor burden in the lungs of benzimidazole-treated animals when compared to vehicle-treated mice was observed. After 22 days, the mice were sacrificed and the lungs examined for viable tumor colonies.
# Blood Gaussia luciferase assay was performed as described in the literature. Briefly, 10-20 μL peripheral blood was collected from the animals once a week via the retro-orbital vein. Secreted GAR luciferase activity was measured using a luminometer by adding 100 μL of 100 μM coelentrazine (Prolume, Nanolight, #303) to 5 μL blood and 2 μL of 20 mM EDTA. Relative luciferase reading from the blood collected represents the tumor burden in each animal. The reading was performed with blood collected at day 19 post inoculation when all mice were still alive.
# [5] = Combination with paclitaxel, Cyquant cell growth inhibition, CompuSyn median-dose effect analysis; format: cell-based; conditions: Fa 0.50; alone or in combination; read-out: Dose MBZ
# Procedure: Cell growth inhibition assays were performed using Cyquant reagent as described above. Drug interactions were quantitated by median-dose effect analysis and combination index values as well as dose reduction index were derived using CompuSyn software (ComboSyn, Inc.), as described previously in the literature. CI values of <1, =1, and >1 indicate synergism, additivity and antagonism between the drugs, respectively.
# All benzimidazole drugs were prepared using the combination carrier and diluted with culture medium prior to treatment.
# [6] = system: PC3 human prostate cancer cells; assay: Cyquant cell viability assay, PC3; format: cell-based; conditions: 72 hours, read-out: ED50 PC3
# Procedure: (§6) The cytotoxic effects of paclitaxel, fenbendazole, and albendazole were compared in paclitaxel-resistant PC3-TR and DU145-TR prostate cancer cells with their paclitaxel-sensitive counterparts, PC3 and DU145 cells. Cells were treated for 72 hours with vehicle, paclitaxel, fenbendazole or albendazole in various doses. Cell viability was measured using Cyquant assay, and percent control was calculated by dividing the fluorescent reading from drug-treated cells with those from vehicle-treated cells, indicating percentage of cell survival.
# [7] = system: paclitaxel-resistant PC3-TR prostate cancer cells; assay: Cyquant cell viability assay, PC3-TR; format: cell-based, human; conditions: Homo sapiens; 72 hours; paclitaxel-resistant; read-out: ED50 PC3-TR
# Procedure: as §6
# [8] = system: DU145 human prostate cancer cells; assay: Cyquant cell viability assay, DU145; format: cell-based; conditions: DU-145, 72 hours, read-out: ED50 DU145
# Procedure: as §6
# [9] = system: paclitaxel-resistant DU145-TR prostate cancer cells; assay: Cyquant cell viability assay, DU145-TR; format: cell-based, human; conditions: Homo sapiens; 72 hours; paclitaxel-resistant; read-out: ED50 DU145-TR
# Procedure: as §6
# [10] = system: MES-SA human uterine sarcoma cells; assay: Cell viability, MES-SA; format: cell-based; conditions: read-out: ED50 MES-SA
# From the text: (§7) Benzimidazoles retain their anti-tumor activity in these paclitaxel-resistant cells, with higher potency when compared to the parental cells (see Table 4). Cells resistant to microtubule-stabilizing drugs such as the taxanes are more susceptible to microtubule-disrupting agents. To confirm this, human uterine sarcoma MES-SA/Dx5 cells, which are cross-resistant to various chemotherapeutic agents, including the microtubule-disrupting agents vincristine and colchicine, were used.
# [11] = system: multidrug resistant MES-SA/Dx5 human uterine sarcoma cells; assay: Cell viability, MES-SA/Dx5; format: cell-based; conditions: read-out: ED50 MES-SA/Dx5
# From the text: as §7
# PC3 cells = assay: % apoptotic cells, PC3; format: cell-based, human; conditions: 1 μM
# PC3-TR cells = assay: % apoptotic cells, PC3-TR; format: cell-based, human; conditions: 1 μM
# DU145 cells = assay: % apoptotic cells, DU145; format: cell-based, human; conditions: 1 μM
# DU145-TR cells = assay: % apoptotic cells, DU145-TR; format: cell-based, human; conditions: 1 μM
# [12] = 50 mg/kg i.p. three times a week from day 5
# [13] = combination carrier, Table 2, read-out: ED50 PC3M
smiles,measurement,setting,value
"COC(=O)Nc1nc2ccccc2[nH]1 [Carbendazim, carbendazim]",fold induction at 1 µM,PC-3MLN4 cells,1
same,fold induction at 1 µM,PC-3M cells,0.91
same,fold induction at 1 µM,AT6.1 cells,1.08
"c1ccc2[nH]c(-c3cscn3)nc2c1 [Thiabendazole, thiabendazole]",fold induction at 1 µM,PC-3MLN4 cells,0.99
same,fold induction at 1 µM,PC-3M cells,0.98
same,fold induction at 1 µM,AT6.1 cells,0.96
"CCCCNC(=O)n1c(NC(=O)OC)nc2ccccc21 [Benomyl, benomyl]",fold induction at 1 µM,PC-3MLN4 cells,0.99
same,fold induction at 1 µM,PC-3M cells,0.91
same,fold induction at 1 µM,AT6.1 cells,1.08
same,percent increase in life span (ILS %),[1],7.5%
same,tubulin disrupting effect,tubulin,strongest tubulin disrupting effect
"CCCOc1ccc2nc(NC(=O)OC)[nH]c2c1 [Oxibendazole, oxibendazole]",pEC50,"[2]; solubilized in DMSO alone, 72 hours, read-out: ED50 PC3M DMSO",5.05
same,cytotoxicity in highly metastatic cells relative to PC-3M,[3],greater cytotoxicity
same,pEC50,"[3]; Homo sapiens, 72 h, read-out: ED50 PC3MLN4 DMSO",5.39
same,fold induction at 1 µM,PC-3MLN4 cells,1.8 to 2
same,fold induction at 1 µM,PC-3M cells,> 1
same,fold induction at 1 µM,AT6.1 cells,> 1
same,cytotoxic activity via apoptosis in highly metastatic prostate cancer cells,PC3MLN4 cells,induction of apoptosis
same,average survival time,[1]; [12],27.4 days
"COC(=O)NC(=S)Nc1ccccc1NC(=S)NC(=O)OC [Thiophanate methyl, thiophanate-methyl]",fold induction at 1 µM,PC-3MLN4 cells,0.95
same,fold induction at 1 µM,PC-3M cells,0.95
same,fold induction at 1 µM,AT6.1 cells,0.96
"COC(=O)Nc1nc2cc(C(=O)c3ccc(F)cc3)ccc2[nH]1 [Flubendazole, flubendazole]",pEC50,[2]; [13],5.84
same,cytotoxicity in highly metastatic cells relative to PC-3M,[3],greater cytotoxicity
same,fold induction at 1 µM,PC-3M cells,> 1
same,fold induction at 1 µM,AT6.1 cells,> 1
same,cytotoxic activity via apoptosis in highly metastatic prostate cancer cells,PC3MLN4 cells,induction of apoptosis
"COC(=O)Nc1nc2ccc(C(=O)c3ccccc3)cc2[nH]1 [Mebendazole, mebendazole]",pEC50,[2]; [13],5.92
same,apoptotic cells in PC3MLN4,"PC3MLN4 cells; 1 μM, 72 hours, combination carrier",17.6%
same,apoptotic cells in PC3M,PC3M cells,16.8%
same,average survival time,[1]; [12],29 days
same,average survival time,[1]; 100 mg/kg i.p. three times a week from day 5,34.6 days
same,percent increase in life span (ILS %),[1],48.9%
same,survival,"[1]; 100 mg/kg, FIG. 6 (control 24.25 days)",36.13 days
same,reduction in tumor burden,"[4]; blood collected at day 19, FIG. 8",most pronounced
same,tumor burden compared to the control,"[4]; until day 22, FIG. 9",significant reduction in tumor burden
same,pEC50,[5],4.76
same,pEC50,[6],5.55
same,pEC50,[7],6.12
same,pEC50,[8],5.23
same,pEC50,[9],5.53
same,pEC50,[10],5.90
same,pEC50,[11],6.10
same,% Apoptotic cells (72 hours) PC3,PC3 cells,11.9%
same,% Apoptotic cells (72 hours) PC3-TR,PC3-TR cells,21.5%
same,% Apoptotic cells (72 hours) DU145,DU145 cells,16.4%
same,% Apoptotic cells (72 hours) DU145-TR,DU145-TR cells,36.7%
